{"source": "patent US7951788B2", "about": "“Method of treating cancer and other conditions or disease states using L-cytosine nucleoside analogs” (Yale University, priority 2005, dated 2011)", "key": {"colon 38 mouse tumor": {"tested_on": "colon 38 mouse tumor", "test": "Experiment 1: growth of colon 38 tumor implanted in the flank of mice, drugs alone and combined with 5-FU/leucovorin", "assay_type": "in vivo", "settings": "FIG. 1; for effect on the anti-cancer activity of 5-FU/LV: combination with 5FU/LV 150 mg/kg each i.p. once on day one, nucleoside p.o. b.i.d. for 5 days (3TC, FTC 100 mg/kg; LFD4C 20 mg/kg); for growth of colon 38 mouse tumor (tumor volume as % of Day 1): drug alone; for growth of colon 38 mouse tumor (tumor volume as % of Day 1) / duration of the effect on colon 38 tumor growth: immunocompetent mice, p.o. b.i.d. for 5 days, 3TC and FTC 100 mg/kg, LFD4C 20 mg/kg", "experimental": "(§1) In general, the following protocol was used to implant mice with tumor cell lines and to test drugs for the anti-cancer effect.\n(§2) This tumor is passed from a solid tumor growing in mice. Several grams (assuming a gram per ml) are pressed through a sterile screen and suspended in a tissue culture media without phenol red or fetal calf serum (a balanced salt solution) at 2 ml/gram of tumor. Then 0.1 ml of this tumor suspension is implanted into the flank of the mouse. Ten days to two weeks after implantation (when the tumors could be measured with a caliper), unless otherwise indicated, the drug therapy was initiated.\n(§3) In general, drugs are delivered according to the following schedule. Every day the mice are weighed to deter the amount to be injected and as an index of toxicity.\n(§4) The Tumor Volume is calculated from the measurements by the formula: length (mm)×width (mm)×width (mm)×Π/6 as a % of Day 1.\nThis experiment was designed to determine the effect of 3TC, FTC or LFD4C alone and in combination with 5-Fluorouracil with leucovorin rescue on the growth of mouse tumor (colon 38) in immuno-competent mice. The drugs were administered to the mice according to the following schedule:\n5FU/LV—150 mg/kg each i.p. once on day one\n3TC—100 mg/kg p.o. b.i.d. for 5 days\nFTC—100 mg/kg p.o. bid for 5 days\nLFD4C—20 mg/kg p.o. b.i.d. for 5 days\nCombination groups received both treatments as per above schedules.\nIn FIG. 1, the following legend applies:\n3TC (100 mg/kg) p.o.b.i.d.×5 days;\nFTC (100 mg/kg) p.o.b.i.d.×5 days;\nLFd4C (20 mg/kg) p.o.b.i.d.×5 days;\nCombination groups received both treatments as per above."}, "colon 38": {"tested_on": "colon 38", "test": "Experiment 2: enhancement of the anti-cancer effect of oxaliplatin on colon 38 growth in mice", "assay_type": "in vivo, C57BL6 female mice", "settings": "combination with oxaliplatin 10 mg/kg i.p. once on day 1, FIG. 2; for enhancement of the anti-tumor effect of oxaliplatin on colon 38: nucleoside p.o. b.i.d. days 1-5 (3TC, FTC 100 mg/kg; LFd4C 15 mg/kg per legend); for duration of the enhancing effect with oxaliplatin: nucleoside p.o. b.i.d. days 1-5", "experimental": "as §1, §2, §3, §4\nExperiment 2 tested the effects of 3TC, FTC and LFD4C (same schedule as above) on the enhancement of anti-cancer drug effect of oxaliplatin (10 mg/kg i.p., once on day 1) on colon 38 growth in C57BL6 female mice. […].\nIn FIG. 2, the following legend applies:\n3TC and FTC (100 mg/kg) p.o.b.i.d. day 1-5;\nLFd4C (15 mg/kg) p.o.b.i.d. days 1-5;\nOxaplatin (10 mg/kg) i.p. once on day 1;\nCombination groups received both treatments as described above."}}}
{"compound": "Nc1nc(=O)n([C@@H]2CS[C@H](CO)O2)cc1F", "note": "[FTC, emtricitabine]", "values": [{"measurement": "effect on the anti-cancer activity of 5-FU/LV", "setting": "colon 38 mouse tumor", "value": "significant (additive or synergistic)"}, {"measurement": "growth of colon 38 mouse tumor (tumor volume as % of Day 1)", "setting": "colon 38 mouse tumor", "value": "slows down the growth"}, {"measurement": "duration of the effect on colon 38 tumor growth", "setting": "colon 38 mouse tumor", "value": "lasted well past the 5 day therapy"}, {"measurement": "enhancement of the anti-tumor effect of oxaliplatin on colon 38", "setting": "colon 38", "value": "clearly enhanced"}, {"measurement": "duration of the enhancing effect with oxaliplatin", "setting": "colon 38", "value": "lasts well after the treatment is stopped"}]}
{"compound": "Nc1nc(=O)n([C@@H]2C=C[C@H](CO)O2)cc1F", "note": "[LFD4C, Elvucitabine]", "values": [{"measurement": "effect on the anti-cancer activity of 5-FU/LV", "setting": "colon 38 mouse tumor", "value": "significant (additive or synergistic)"}, {"measurement": "growth of colon 38 mouse tumor (tumor volume as % of Day 1)", "setting": "colon 38 mouse tumor", "value": "slows down the growth"}, {"measurement": "duration of the effect on colon 38 tumor growth", "setting": "colon 38 mouse tumor", "value": "lasted well past the 5 day therapy"}, {"measurement": "enhancement of the anti-tumor effect of oxaliplatin on colon 38", "setting": "colon 38", "value": "clearly enhanced"}, {"measurement": "duration of the enhancing effect with oxaliplatin", "setting": "colon 38", "value": "lasts well after the treatment is stopped"}]}
